The text below walks through data of the supplement of paper PMC8671470.

The structures appear in SMILES notation. ± gives the standard deviation of the averaged measurements. Where only a bound is given, the exact number is not on record here.

Experiment [1] relates to HL-60. Description: cell viability (% survival relative to DMSO control); higher = less cytotoxic. Particulars: 72 h. The gist of the method: (§1)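 Area under the curve, where listed, was derived from four-parameter log-logistic fits with drc and PharmacoGx. These fits used CellTiter-Glo viability from HL-60 cells in RPMI 1640 with 10% FBS, normalised to DMSO wells and wells holding 10 μM proteasome inhibitor. The full library was rescreened on 384-well plates in duplicate at five tenfold concentrations, 1–10,000 nM, with DMSO or 100 nM of one of three metabolic inhibitors, for 72 h at 37 °C, 5% CO2.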

The test system of experiment [2] is HL-60. Description: area under dose-response curve (viability, 1 nM-10 uM) (fraction (0-1)); higher = more sensitive. Particulars: 72 h. The gist of the method: as §1
Where [3] appears, read: 0.001 µM, co-treatment: AZD3965 100 nM.
Where [4] appears, read: 0.001 µM, co-treatment: DMSO vehicle.
The mark [5] stands for this setting: 0.001 µM, co-treatment: GSK2194069 100 nM.
The mark [6] stands for this setting: 0.001 µM, co-treatment: pictilisib 100 nM.
The mark [7] stands for this setting: 0.01 µM, co-treatment: AZD3965 100 nM.
The mark [8] stands for this setting: 0.01 µM, co-treatment: DMSO vehicle.
Where [9] appears, read: 0.01 µM, co-treatment: GSK2194069 100 nM.
[10] abbreviates: 0.01 µM, co-treatment: pictilisib 100 nM.
The mark [11] stands for this setting: 0.1 µM, co-treatment: AZD3965 100 nM.
Setting [12] is: 0.1 µM, co-treatment: DMSO vehicle.
Where [13] appears, read: 0.1 µM, co-treatment: GSK2194069 100 nM.
The mark [14] stands for this setting: 0.1 µM, co-treatment: pictilisib 100 nM.
[15] abbreviates: 1 µM, co-treatment: AZD3965 100 nM.
The mark [16] stands for this setting: 1 µM, co-treatment: DMSO vehicle.
Where [17] appears, read: 1 µM, co-treatment: GSK2194069 100 nM.
Where [18] appears, read: 1 µM, co-treatment: pictilisib 100 nM.
Setting [19] is: 10 µM, co-treatment: AZD3965 100 nM.
The mark [20] stands for this setting: 10 µM, co-treatment: DMSO vehicle.
Where [21] appears, read: 10 µM, co-treatment: GSK2194069 100 nM.
[22] abbreviates: 10 µM, co-treatment: pictilisib 100 nM.
Setting [23] is: co-treatment: GSK2194069 100 nM.
The mark [24] stands for this setting: co-treatment: pictilisib 100 nM.

As for `COC(=O)c1cc2c(C(F)(F)F)cc(-c3ccccc3)cc2n1O` [NHI-2], the cell viability turned out to be 101 ± 16% in the experiment on HL-60 [1] (setting [3]); 102 ± 3.1% with HL-60 [1] (setting [4]); 103 ± 4.8% with HL-60 [1] (setting [5]); 96.9 ± 18% with HL-60 [1] (setting [6]); 90.5 ± 6% with HL-60 [1] (setting [7]); 100 ± 4% in the experiment with HL-60 [1] (setting [8]). In addition, the cell viability with HL-60 [1] (setting [9]) is 94.829 ± 0.083%; in the experiment with HL-60 [1] (setting [10]), 92.8 ± 10%; in the experiment with HL-60 [1] (setting [11]) it was 103 ± 8.9%; with HL-60 [1] (setting [12]) it was 104 ± 1.4%; with HL-60 [1] (setting [13]) it was 100 ± 3.5%; in the experiment with HL-60 [1] (setting [14]), 103 ± 3.6%. For the same compound, the cell viability in the experiment with HL-60 [1] (setting [15]) amounted to 107 ± 4.8%; in the experiment with HL-60 [1] (setting [16]), 102 ± 3.6%; in the experiment on HL-60 [1] (setting [17]) it was 107.3 ± 0.8%; in the experiment with HL-60 [1] (setting [18]) it was 99.3 ± 8.1%; in the experiment on HL-60 [1] (setting [19]), 109 ± 7.1%; with HL-60 [1] (setting [20]), 111 ± 6%. Also, the cell viability is 98.4 ± 0.75% with HL-60 [1] (setting [21]) and 97.3 ± 13% in the experiment on HL-60 [1] (setting [22]). The “area under dose-response curve” value in the experiment with HL-60 [2] (co-treatment: AZD3965 100 nM), in the experiment on HL-60 [2] (co-treatment: DMSO vehicle), in the experiment on HL-60 [2] (setting [23]) and in the experiment with HL-60 [2] (setting [24]) was below 0.0301 in each case.

For the compound `CCCCCCCC/C=C\CCCCCCCC(=O)Nc1ccccc1` [Octadec-9-Enoic Acid Phenylamide], the cell viability worked out at 99.2 ± 1.6% in the experiment on HL-60 [1] (setting [3]); 94.5 ± 9.6% with HL-60 [1] (setting [4]); 93 ± 1.7% in the experiment with HL-60 [1] (setting [5]); 98.2 ± 4.6% in the experiment on HL-60 [1] (setting [6]); 98.61 ± 0.52% in the experiment on HL-60 [1] (setting [7]); 91.3 ± 13% in the experiment on HL-60 [1] (setting [8]). Moreover, the cell viability with HL-60 [1] (setting [9]) is 98 ± 9.1%; with HL-60 [1] (setting [10]) it was 99 ± 3.9%; in the experiment on HL-60 [1] (setting [11]), 104 ± 4.4%; in the experiment on HL-60 [1] (setting [12]), 103 ± 5.8%; in the experiment with HL-60 [1] (setting [13]), 103 ± 4.3%; in the experiment on HL-60 [1] (setting [14]), 106 ± 1.2%. Besides, the cell viability in the experiment with HL-60 [1] (setting [15]) is 101 ± 1.6%; in the experiment on HL-60 [1] (setting [16]), 101 ± 3.4%; in the experiment on HL-60 [1] (setting [17]), 98.7 ± 4.8%; with HL-60 [1] (setting [18]), 108 ± 10%; in the experiment on HL-60 [1] (setting [19]), 90.3 ± 8.5%; in the experiment on HL-60 [1] (setting [20]), 105 ± 3.8%. The figures for the cell viability in the experiment with HL-60 [1] (setting [21]) and with HL-60 [1] (setting [22]) were 91.5 ± 6.8% and 91.3 ± 8.9%, respectively. Also, the “area under dose-response curve” value in the experiment on HL-60 [2] (co-treatment: AZD3965 100 nM), with HL-60 [2] (co-treatment: DMSO vehicle), with HL-60 [2] (setting [23]) and with HL-60 [2] (setting [24]) was below 0.0301 throughout.

Consider `CC[C@H](C)[C@H](N)C(=O)N1CCSC1` [P32/98], for which the cell viability in the experiment on HL-60 [1] (setting [3]) came to 99.83 ± 0.39%; in the experiment with HL-60 [1] (setting [4]), 99.4 ± 4%; in the experiment on HL-60 [1] (setting [5]), 99.6 ± 1.6%; with HL-60 [1] (setting [6]) it was 105 ± 1.3%; with HL-60 [1] (setting [7]) it was 97.4 ± 1.5%; with HL-60 [1] (setting [8]) it was 105 ± 3.5%. Also, the cell viability with HL-60 [1] (setting [9]) was determined as 100 ± 3.4%; in the experiment with HL-60 [1] (setting [10]), 106 ± 19%; in the experiment on HL-60 [1] (setting [11]), 102 ± 5.5%; in the experiment on HL-60 [1] (setting [12]), 99.5 ± 1.5%; in the experiment with HL-60 [1] (setting [13]), 98.8 ± 3.1%; with HL-60 [1] (setting [14]), 96.3 ± 2%. The cell viability was 98.4 ± 1.6% with HL-60 [1] (setting [15]); 98.74 ± 0.79% in the experiment on HL-60 [1] (setting [16]); 98.7 ± 4.2% with HL-60 [1] (setting [17]); 105 ± 3.8% with HL-60 [1] (setting [18]); 95.6 ± 4% with HL-60 [1] (setting [19]); 97.8 ± 4.4% in the experiment on HL-60 [1] (setting [20]). The cell viability with HL-60 [1] (setting [21]) was 96.6 ± 6.2%; in the experiment on HL-60 [1] (setting [22]), 101 ± 9.5%. Moreover, the “area under dose-response curve” value with HL-60 [2] (co-treatment: AZD3965 100 nM), in the experiment with HL-60 [2] (co-treatment: DMSO vehicle), in the experiment with HL-60 [2] (setting [23]) and in the experiment on HL-60 [2] (setting [24]) was below 0.0301 each time.

Regarding `OC[C@H]1O[C@@H](n2cnc3c2N=CNC[C@H]3O)C[C@@H]1O` [Pentostatin], the cell viability amounted to 97.8 ± 3.3% in the experiment with HL-60 [1] (setting [3]); 92.3 ± 12% with HL-60 [1] (setting [4]); 86.6 ± 13% with HL-60 [1] (setting [5]); 89.2 ± 4.1% in the experiment on HL-60 [1] (setting [6]); 105 ± 3.7% in the experiment with HL-60 [1] (setting [7]); 105 ± 7.4% in the experiment on HL-60 [1] (setting [8]). Further, the cell viability in the experiment with HL-60 [1] (setting [9]) was found to be 101 ± 2.8%; in the experiment on HL-60 [1] (setting [10]), 102 ± 3.8%; with HL-60 [1] (setting [11]), 100 ± 3.5%; with HL-60 [1] (setting [12]), 94.9 ± 6.3%; in the experiment on HL-60 [1] (setting [13]), 98.8 ± 2.3%; with HL-60 [1] (setting [14]), 91.2 ± 1.8%. The cell viability was 102 ± 2.8% with HL-60 [1] (setting [15]); 106 ± 2.7% in the experiment on HL-60 [1] (setting [16]); 101 ± 4.7% with HL-60 [1] (setting [17]); 103 ± 7.5% with HL-60 [1] (setting [18]); 100.2 ± 0.14% with HL-60 [1] (setting [19]); 102 ± 2.5% with HL-60 [1] (setting [20]). Further, the cell viability in the experiment on HL-60 [1] (setting [21]) turned out to be 93.96 ± 0.9%; with HL-60 [1] (setting [22]), 96.2 ± 1.8%. Further, the “area under dose-response curve” value in the experiment on HL-60 [2] (co-treatment: AZD3965 100 nM), in the experiment with HL-60 [2] (co-treatment: DMSO vehicle), in the experiment on HL-60 [2] (setting [23]) and in the experiment with HL-60 [2] (setting [24]) was below 0.0301 throughout.

As usually defined, the cell viability is a read-out of living cells in per cent, often relative to untreated cells.
